Experimental data: patent publication US9371336B2, “Compounds for treating spinal muscular atrophy” (PTC Therapeutics Inc., priority 2012, dated 2016)

What was measured:
[1] = tested on: human SMN1 minigene full length and Δ7 mRNA (SMN1-A); experiment: Human SMN1 minigene mRNA end-point semi-quantitative RT-PCR splicing assay in cultured cells; format: cell-based; conditions: HEK293H cells transfected with SMN1-A minigene, increasing concentrations, 7 hours, agarose gel (FIG. 10)
From the text: The RT-PCR assay is used to visualize and quantify the levels of the human SMN1 minigene full length and Δ7 mRNA in primary cells and cell lines expressing the human SMN1 minigene construct treated with a test compound.
Using the procedure for the preparation of the SMN2 minigene construct described in Biological Example 1, the SMN1 version of the minigene is generated by replacing the sixth nucleotide of exon 7 (a thymine residue) of the SMN2-A minigene construct to cytosine using site-directed mutagenesis. Thus, similar to the SMN2-A minigene construct, the SMN1 minigene construct has a single adenine residue inserted after nucleic residue 48 of exon 7. The SMN1 minigene construct is referred to as SMN1-A.
HEK293H cells (10,000 cells/well/199 μL) were transfected, using FuGENE-6 reagent, in a 96-well plate with 15 ng of the SMN1-A minigene reporter plasmid per well. Cells were incubated for 24 hours following transfection. Test compounds were serially diluted 3.16-fold in 100% DMSO to generate a 7-point concentration curve. A solution of test compound (1 μL, 200× in DMSO) was added to each test well. 1 μL DMSO was added to each control well. The plate was incubated for 7 hours in a cell culture incubator (37° C., 5% CO2, 100% relative humidity). The cells were then lysed in Cells-To-Ct lysis buffer and the lysates were stored at −80° C.
Two SMN spliced mRNA are generated from the SMN1 minigene. The term “SMN1 minigene FL” refers to the first spliced product containing exon 7, corresponding to full length SMN1 mRNA. The term “SMN1 minigene A7” refers to the second product lacking exon 7.
SMN1 minigene FL and SMN1 minigene Δ7 mRNA are amplified using the primers in Table 11. Primer SMN Forward C (SEQ ID NO. 11) hybridizes to a nucleotide sequence in exon 6 (nucleotide 43 to nucleotide 63), primer SMN Reverse A (SEQ ID NO. 2) hybridizes to a nucleotide sequence in the coding sequence of Firefly luciferase. The combination of these two oligonucleotides detects only SMN1 or SMN2 minigenes (RT-PCR) and will not detect endogenous SMN1 or SMN2 genes. Since the HEK293H cells used in Example 16 were transfected with only the human SMN1 minigene, RT-PCR can visualize and quantify only SMN1 minigene FL and SMN1 minigene Δ7 mRNA.
(§1) To synthesize cDNA, 5 μL of lysate, 4 μL of 5× iScript reaction mix, 1 μL of reverse transcriptase, and 10 μL of water are combined and incubated 5 min at 25° C. followed by 30 min at 42° C., followed by 5 min at 85° C. The cDNA solution is stored at −20° C.
To perform endpoint PCR, 5 μL of cDNA, 0.2 μL of 100 μM forward primer, 0.2 μL of 100 μM reverse primer, and 22.5 μL of polymerase super mix are combined in a 96 well semiskirted PCR plate. PCR is carried out at the following temperatures for the indicated time: Step 1: 94° C. (2 min), Step 2: 94° C. […]

[2] = tested on: SMN2 full length and Δ7 mRNA; experiment: Endogenous SMN2 mRNA end-point semi-quantitative RT-PCR splicing assay in cultured cells (GM03813); format: cell-based, human; conditions: Type 1 SMA patient fibroblasts GM03813, increasing concentrations, 24 hr, agarose gel (FIG. 5)
Procedure: The endpoint reverse transcription-PCR splicing assay is used to visualize and quantify the levels of the SMN2 full length and Δ7 mRNA in primary cells and cell lines containing the SMN2 gene treated with a test compound.
GM03813 SMA patient cells (5,000 cells/well) are seeded in 200 μL of cell culture medium (DMEM plus 10% FBS) in 96-well flat-bottom plates and the plate is immediately swirled to ensure proper dispersal of cells, forming an even monolayer of cells. Cells are allowed to attach for at least 4-6 hrs. Test compounds are serially diluted 3.16-fold in 100% DMSO to generate a 7-point concentration curve. A solution of test compound (1 μL, 200× in DMSO) is added to each test well and 1 μL DMSO is added to each control well. The plate is incubated for 24 hrs in a cell culture incubator (37° C., 5% CO2, 100% relative humidity). The cells are then lysed in Cells-To-Ct lysis buffer and the lysate is stored at 80° C.
SMN FL and Δ7 mRNA are identified using the following primers in Table 6. These primers hybridize to a nucleotide sequence in exon 6 (SMN Forward C, SEQ ID NO. 11) (nucleotide 43 to nucleotide 63) and exon 8 (SMN Reverse C, SEQ ID NO. 12) (nucleotide 51 to nucleotide 73) common to human SMN1 and SMN2 mRNA. Since the SMA patient cells used in Example 4 contain only the SMN2 gene, RT-PCR can visualize and quantify only SMN2 full-length and SMN2 Δ7 mRNA.
as §1
To perform endpoint PCR, 5 μL of cDNA, 0.2 μL of 100 μM forward primer, 0.2 μL of 100 μM reverse primer, and 22.5 μL of polymerase super mix are combined in a 96 well semiskirted PCR plate. PCR is carried out at the following temperatures for the indicated time: Step 1: 94° C. (2 min), Step 2: 94° C. (30 sec), Step 3: 55° C. (30 sec), Step 4: 68° C. (1 min), then repeat Steps 2 to 4 for a total of 33 cycles, then hold at 4° C.
10 μL of each PCR sample is electrophoretically separated on a 2% agarose E-gel for 14 minutes stained with double-stranded DNA (dsDNA) staining reagents (e.g., ethidium bromide) and visualized using a gel imager.

With `CN1CCN(c2ccc3cc(-c4nc5c(Cl)cccc5s4)c(=O)oc3n2)CC1` [Cpd 5, 3-(4-chloro-1,3-benzothiazol-2-yl)-7-(4-methylpiperazin-1-yl)-2H-pyrano[2,3-b]pyridin-2-one] the “SMN1 minigene FL mRNA (gel band)” value [1] was “progressively more SMN1 minigene FL mRNA”, the “SMN1 minigene Δ7 mRNA (gel band)” value [1] was “less SMN1 minigene Δ7 mRNA” and the “SMN2 FL mRNA (gel band)” value [2] was “progressively more SMN2 FL mRNA”. The “SMN2 Δ7 mRNA (gel band)” value [2] was “less SMN2 Δ7 mRNA”.
In the case of `Cc1ccc2nc(-c3cc4ccc(N5CCN(C)CC5)nc4oc3=O)cn2c1` [Cpd 27, 3-(6-methylimidazo[1,2-a]pyridin-2-yl)-7-(4-methylpiperazin-1-yl)-2H-pyrano[2,3-b]pyridin-2-one], the “SMN1 minigene FL mRNA (gel band)” value [1] is reported as “progressively more SMN1 minigene FL mRNA”, the “SMN1 minigene Δ7 mRNA (gel band)” value [1] is reported as “less SMN1 minigene Δ7 mRNA” and the “SMN2 FL mRNA (gel band)” value [2] is reported as “progressively more SMN2 FL mRNA”. The “SMN2 Δ7 mRNA (gel band)” value [2] was “less SMN2 Δ7 mRNA”.
